The record followed here is US12594276B2, “Inhibitors of human immunodeficiency virus replication” (ViiV Healthcare UK (No.5) Limited, priority 2024, dated 2026).

pEC50: −log10 of the molar value.

The test system of data set [1] is recombinant NL4-3 virus (nef section replaced with Renilla luciferase gene) in MT-2 cells. The data set can be described thus: HIV cell culture assay (antiviral activity, luciferase readout). It counts as cell-based. The settings on record: Renilla, NL43, MT-2 cells infected for 4-5 days with recombinant NL4-3 Renilla luciferase virus. In a few lines: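 293T transfection → virus harvest at 2-3 d → titer in MT-2 by luciferase. MT-2 + virus + serial cpd dilutions, 4-5 d. Live-cell luciferase read; EC50 by median effect fit.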

The nature of data set [2]: Compound cytotoxicity, XTT-based colorimetric assay. In kind it is cell-based. The settings on record: human; uninfected MT2 cells, day 4, XTT; read-out: CC50. In outline: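 Cells seeded as for the antiviral assay but left uninfected (MT2). Compound exposure continued to day 4. XTT reagent added and colour read. CC50 calculated.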
On the technique in general: Tetrazolium assays rely on reduction of a dye to a coloured formazan, in cell work by metabolically active cells.

As to `CS(=O)(=O)Nc1nn(CCN2C[C@H](F)C[C@H](F)C2)c2c(-n3c([C@H](Cc4cc(F)cc(F)c4)NC(=O)Cn4nc(C5CC5)c5c4C[C@@H]4C[C@H]54)nc4nc(C5CCC(F)(F)CC5)cc(C5CC5)c4c3=O)ccc(Cl)c12` (atropisomer, axis not shown; (P)) [Example 327, N-[(1S)-1-[(3P)-3-(4-chloro-1-{2-[(3R,5S)-3,5-difluoropiperidin-1-yl]ethyl}-3-methanesulfonamido-1H-indazol-7-yl)-5-cyclopropyl-7-(4,4-difluorocyclohexyl)-4-oxo-3H,4H-pyrido[2,3-d]pyrimidin-2-yl]-2-(3,5-difluorophenyl)ethyl]-2-[(2S,4S)-9-cyclopropyl-7,8-diazatricyclo[4.3.0.0^2,^4]nona-1(6),8-dien-7-yl]acetamide], in data set [1], the pEC50 was 11.10. Also, the CC50 at 4 days in data set [2] is > 50 nM.
The like results for `CS(=O)(=O)Nc1nn(CCN2CCC(F)(F)C2)c2c(-n3c([C@H](Cc4cc(F)cc(F)c4)NC(=O)Cn4nc(C(F)F)c5c4C(F)(F)[C@@H]4C[C@H]54)nc4nc(C5CCC(F)(F)CC5)cc(C5CC5)c4c3=O)ccc(Cl)c12` (atropisomer, axis not shown; (P)) [Example 354, N-[(1S)-1-[(3P)-3-{4-chloro-1-[2-(3,3-difluoropyrrolidin-1-yl)ethyl]-3-methanesulfonamido-1H-indazol-7-yl}-5-cyclopropyl-7-(4,4-difluorocyclohexyl)-4-oxo-3H,4H-pyrido[2,3-d]pyrimidin-2-yl]-2-(3,5-difluorophenyl)ethyl]-2-[(2S,4R)-9-(difluoromethyl)-5,5-difluoro-7,8-diazatricyclo[4.3.0.0^2,^4]nona-1(6),8-dien-7-yl]acetamide] were, in that order, 10.66 and > 50 nM.
The like results for `COC[C@H]1CN(CCn2nc(NS(C)(=O)=O)c3c(Cl)ccc(-n4c([C@H](Cc5cc(F)cc(F)c5)NC(=O)Cn5nc(C(F)F)c6c5C(F)(F)[C@@H]5C[C@H]65)nc5nc(C6CCC(F)(F)CC6)ccc5c4=O)c32)CCO1` (atropisomer, axis not shown; (P)) [Example 356, N-[(1S)-1-[(3P)-3-(4-chloro-3-methanesulfonamido-1-{2-[(2R)-2-(methoxymethyl)morpholin-4-yl]ethyl}-1H-indazol-7-yl)-7-(4,4-difluorocyclohexyl)-4-oxo-3H,4H-pyrido[2,3-d]pyrimidin-2-yl]-2-(3,5-difluorophenyl)ethyl]-2-[(2S,4R)-9-(difluoromethyl)-5,5-difluoro-7,8-diazatricyclo[4.3.0.0^2,^4]nona-1(6),8-dien-7-yl]acetamide] were, in that order, 10.54 and > 50 nM.
In the case of `C[C@@H]1CN(CCn2nc(NS(C)(=O)=O)c3c(Cl)ccc(-n4c([C@H](Cc5cc(F)cc(F)c5)NC(=O)Cn5nc(C(F)F)c6c5C(F)(F)[C@@H]5C[C@H]65)nc5nc(C6CCC(F)(F)CC6)ccc5c4=O)c32)CCO1` (atropisomer, axis not shown; (P)) [Example 360], in data set [1], the pEC50 is 11.00. Further, in data set [2], the 50% cytotoxic concentration (CC50) at 4 days is > 50 nM.
The like results for `CS(=O)(=O)Nc1nn(CCN2CCC(F)CC2)c2c(-n3c([C@H](Cc4cc(F)cc(F)c4)NC(=O)Cn4nc(C(F)F)c5c4C(F)(F)[C@@H]4C[C@H]54)nc4nc(C5CCC(F)(F)CC5)cc(C(F)F)c4c3=O)ccc(Cl)c12` (atropisomer, axis not shown; (P)) [Example 370, N-[(1S)-1-[(3P)-3-{4-chloro-1-[2-(4-fluoropiperidin-1-yl)ethyl]-3-methanesulfonamido-1H-indazol-7-yl}-7-(4,4-difluorocyclohexyl)-5-(difluoromethyl)-4-oxo-3H,4H-pyrido[2,3-d]pyrimidin-2-yl]-2-(3,5-difluorophenyl)ethyl]-2-[(2S,4R)-9-(difluoromethyl)-5,5-difluoro-7,8-diazatricyclo[4.3.0.0^2,^4]nona-1(6),8-dien-7-yl]acetamide] were, in that order, 11.05 and > 20 nM.

The pEC50 is the EC50 on a negative log10 scale, so that one unit is a factor of ten. By CC50 is commonly meant the concentration that lowers cell viability or growth by half.
